Data from patent publication US8362031B2, “Lonidamine analogues and treatment of polycystic kidney disease” (University of Kansas, priority 2004, dated 2013).

Assays:
male rats = assay: Fertility trials following oral administration (challenge mating); format: in vivo, rat; conditions: for Embryos normal (mean number per pregnant female) / Males fertile / Embryos abnormal (mean number per pregnant female): Table 9B, single oral dose of 6 mg/kg; for MALES MATED/MALES FERTILE: Table 9C
Procedure: The following table illustrates the results of a single oral does of 6 mg/kg of RC-MC-110 orally to male rats. […] The ethyl alcohol was evaporated 10% prior to administration. The “embryos normal” and “embryos abnormal” represents the mean number of embryos per pregnant female. […]
The following table illustrates the results of a single oral does of four different doses of RC-MC-110 orally to male rats.

fruitfly = assay: Reproduction of fruitfly; format: in vivo, Drosophila (fruitfly)
From the text: Several known Hsp90 inhibitors are listed above. With regard to HSP90, RC-MC-110 likely a novel inhibitor of the N-terminal ATP binding site or a novel site on Hsp90. It should be noted that mutants of Hsp90 in Drosophila (fruitfly) produce sterile males and females. […] Genetics. 1999 March; 151(3):1065-79.

[1] = system: ovarian (ID8), taxol-resistant ovarian (ID8), prostate (LNCaP and PC-3), kidney (293); assay: Growth of cancer cell lines in vitro; format: cell-based; conditions: all cell lines named
Procedure: When RC-MC-110 is added to a variety of cancer cells: ovarian (ID8), taxol-resistant ovarian (ID8), prostate (LNCaP and PC-3), kidney (293).

## O=C(O)/C=C/c1nn(Cc2ccc(Cl)cc2Cl)c2cc(C(F)(F)F)ccc12 [RC-MC-110, trans 3-[1-(2,4-dichlorobenzyl)-6-trifluoromethyl-1H-indazol-3-yl]-acrylic acid]
Male rats; week 8
  Embryos normal (mean number per pregnant female): 12
Male rats; week 8, 7 males mated
  Males fertile: 3
Male rats; week 9
  Embryos abnormal (mean number per pregnant female): 0.4
  Embryos normal (mean number per pregnant female): 12
Male rats; week 9, 7 males mated
  Males fertile: 4
Male rats; week 10
  Embryos abnormal (mean number per pregnant female): 1
  Embryos normal (mean number per pregnant female): 11
Male rats; week 10, 7 males mated
  Males fertile: 3
Male rats; week 12
  Embryos abnormal (mean number per pregnant female): 0.1
  Embryos normal (mean number per pregnant female): 14
Male rats; week 12, 7 males mated
  Males fertile: 4
Male rats; week 13
  Embryos abnormal (mean number per pregnant female): 1.0
  Embryos normal (mean number per pregnant female): 14
Male rats; week 13, 7 males mated
  Males fertile: 3
Male rats; week 14
  Embryos abnormal (mean number per pregnant female): 0.7
  Embryos normal (mean number per pregnant female): 11
Male rats; week 14, 7 males mated
  Males fertile: 4
Male rats; week 18
  Embryos abnormal (mean number per pregnant female): 0.7
  Embryos normal (mean number per pregnant female): 14
Male rats; week 18, 7 males mated
  Males fertile: 4
Male rats; week 26
  Embryos abnormal (mean number per pregnant female): 0.6
  Embryos normal (mean number per pregnant female): 13
Male rats; week 26, 7 males mated
  Males fertile: 3
Male rats; single oral dose 0.75 MG/KG in 10% ethyl alcohol and sesame oil, week 1
  MALES MATED/MALES FERTILE: 6/6
Male rats; single oral dose 0.75 MG/KG in 10% ethyl alcohol and sesame oil, week 2
  MALES MATED/MALES FERTILE: 8/8
Male rats; single oral dose 0.75 MG/KG in 10% ethyl alcohol and sesame oil, week 3
  MALES MATED/MALES FERTILE: 6/6
Male rats; single oral dose 0.75 MG/KG in 10% ethyl alcohol and sesame oil, week 4
  MALES MATED/MALES FERTILE: 6/6
Male rats; single oral dose 0.75 MG/KG in 10% ethyl alcohol and sesame oil, week 5
  MALES MATED/MALES FERTILE: 6/6
Male rats; single oral dose 0.75 MG/KG in 10% ethyl alcohol and sesame oil, week 6
  MALES MATED/MALES FERTILE: 6/6
Male rats; single oral dose 0.75 MG/KG in 10% ethyl alcohol and sesame oil, week 7
  MALES MATED/MALES FERTILE: 6/6
Male rats; single oral dose 0.75 MG/KG in 10% ethyl alcohol and sesame oil, week 8
  MALES MATED/MALES FERTILE: 6/6
Male rats; single oral dose 1.5 MG/KG in 10% ethyl alcohol and sesame oil, week 1
  MALES MATED/MALES FERTILE: 6/5
Male rats; single oral dose 1.5 MG/KG in 10% ethyl alcohol and sesame oil, week 2
  MALES MATED/MALES FERTILE: 6/6
Male rats; single oral dose 1.5 MG/KG in 10% ethyl alcohol and sesame oil, week 3
  MALES MATED/MALES FERTILE: 6/5
Male rats; single oral dose 1.5 MG/KG in 10% ethyl alcohol and sesame oil, week 4
  MALES MATED/MALES FERTILE: 6/5
Male rats; single oral dose 1.5 MG/KG in 10% ethyl alcohol and sesame oil, week 5
  MALES MATED/MALES FERTILE: 6/6
Male rats; single oral dose 1.5 MG/KG in 10% ethyl alcohol and sesame oil, week 6
  MALES MATED/MALES FERTILE: 6/6
Male rats; single oral dose 1.5 MG/KG in 10% ethyl alcohol and sesame oil, week 7
  MALES MATED/MALES FERTILE: 6/6
Male rats; single oral dose 1.5 MG/KG in 10% ethyl alcohol and sesame oil, week 8
  MALES MATED/MALES FERTILE: 6/6
Male rats; single oral dose 1.5 MG/KG in 10% ethyl alcohol and sesame oil, week 9
  MALES MATED/MALES FERTILE: 6/6
Male rats; single oral dose 3.0 MG/KG in 10% ethyl alcohol and sesame oil, week 1
  MALES MATED/MALES FERTILE: 6/6
Male rats; single oral dose 3.0 MG/KG in 10% ethyl alcohol and sesame oil, week 2
  MALES MATED/MALES FERTILE: 6/6
Male rats; single oral dose 3.0 MG/KG in 10% ethyl alcohol and sesame oil, week 3
  MALES MATED/MALES FERTILE: 6/3
Male rats; single oral dose 3.0 MG/KG in 10% ethyl alcohol and sesame oil, week 4
  MALES MATED/MALES FERTILE: 6/2
Male rats; single oral dose 3.0 MG/KG in 10% ethyl alcohol and sesame oil, week 5
  MALES MATED/MALES FERTILE: 6/6
Male rats; single oral dose 3.0 MG/KG in 10% ethyl alcohol and sesame oil, week 6
  MALES MATED/MALES FERTILE: 6/6
Male rats; single oral dose 3.0 MG/KG in 10% ethyl alcohol and sesame oil, week 7
  MALES MATED/MALES FERTILE: 6/6
Male rats; single oral dose 3.0 MG/KG in 10% ethyl alcohol and sesame oil, week 8
  MALES MATED/MALES FERTILE: 6/6
Male rats; single oral dose 3.0 MG/KG in 10% ethyl alcohol and sesame oil, week 9
  MALES MATED/MALES FERTILE: 6/6
Male rats; single oral dose 6.0 MG/KG in 10% ethyl alcohol and sesame oil, week 1
  MALES MATED/MALES FERTILE: 7/7
Male rats; single oral dose 6.0 MG/KG in 10% ethyl alcohol and sesame oil, week 2
  MALES MATED/MALES FERTILE: 7/7
Male rats; single oral dose 6.0 MG/KG in 10% ethyl alcohol and sesame oil, week 3
  MALES MATED/MALES FERTILE: 7/2
Male rats; single oral dose 6.0 MG/KG in 10% ethyl alcohol and sesame oil, week 4
  MALES MATED/MALES FERTILE: 7/0
Male rats; single oral dose 6.0 MG/KG in 10% ethyl alcohol and sesame oil, week 5
  MALES MATED/MALES FERTILE: 7/0
Male rats; single oral dose 6.0 MG/KG in 10% ethyl alcohol and sesame oil, week 6
  MALES MATED/MALES FERTILE: 7/1
Male rats; single oral dose 6.0 MG/KG in 10% ethyl alcohol and sesame oil, week 7
  MALES MATED/MALES FERTILE: 7/2
Male rats; single oral dose 6.0 MG/KG in 10% ethyl alcohol and sesame oil, week 8
  MALES MATED/MALES FERTILE: 7/3
Male rats; single oral dose 6.0 MG/KG in 10% ethyl alcohol and sesame oil, week 9
  MALES MATED/MALES FERTILE: 7/4
Male rats; single oral dose 6.0 MG/KG in 10% ethyl alcohol and sesame oil, week 10
  MALES MATED/MALES FERTILE: 7/3
Male rats; single oral dose 6.0 MG/KG in 10% ethyl alcohol and sesame oil, week 12
  MALES MATED/MALES FERTILE: 7/4
Male rats; single oral dose 6.0 MG/KG in 10% ethyl alcohol and sesame oil, week 13
  MALES MATED/MALES FERTILE: 7/3
Male rats; single oral dose 6.0 MG/KG in 10% ethyl alcohol and sesame oil, week 14
  MALES MATED/MALES FERTILE: 7/4
fruitfly; in vivo
  Potency on fruitfly reproduction, compared with lonidamine: more potent than lonidamine
fruitfly; provided to a fruitfly
  Reproduction of fruitfly: inhibited reproduction
[1]
  Growth of cancer cell lines in vitro: inhibited by RC-MC-110 in a dose-dependent manner
